{"source": "patent US20220081412A1", "about": "“QUINOLINYL-PYRAZINE-CARBOXAMIDE COMPOUNDS AND USES THEREOF” (The Regents of the University of Michigan, priority 2018, published 2022)", "test_system": "NCI60 cell lines", "test": "NCI60 cell line panel", "type": "cell-based, human", "protocol": "The Developmental Therapeutics Program (DTP) of NCI has evaluated more than 100,000 pure compounds and more than 34,000 crude extracts against the panel of human tumor cell lines. The resultant data are analyzed using a program called COMPARE, that rank the entire database of tested compounds in the order of the similarity of the responses. […] Thus, the NCI60 databases is highly useful to the cancer research community. Further experiments were conducted that tested some of the active compounds in a panel of NCI60 cell line to relate our compounds with some known inhibitors to have an idea of possible mechanism of action.\nIn order to understand the selectivity of these compounds in different cancer types, some of them were tested against a panel of 60 cell lines (Table XXXIX).", "data": [{"smiles": "O=C(Nc1cc(F)cc2cccnc12)c1cnc(N2CCNCC2)cn1", "note": "[J44, N-(6-fluoroquinolin-8-yl)-5-(piperazin-1-yl)pyrazine-2-carboxamide]", "values": [{"measurement": "GIPRCNT: % Growth inhibition", "setting": "Breast Cancer, BT-549", "value": 82.22, "unit": "%"}, {"measurement": "GIPRCNT: % Growth inhibition", "setting": "Breast Cancer, HS 578T", "value": 71.77, "unit": "%"}, {"measurement": "GIPRCNT: % Growth inhibition", "setting": "Breast Cancer, MCF7", "value": 75.22, "unit": "%"}, {"measurement": "GIPRCNT: % Growth inhibition", "setting": "Breast Cancer, MDA-MB-231/ATCC", "value": 10.16, "unit": "%"}, {"measurement": "GIPRCNT: % Growth inhibition", "setting": "Breast Cancer, MDA-MB-468", "value": "−5.124", "unit": "%"}, {"measurement": "GIPRCNT: % Growth inhibition", "setting": "Breast Cancer, T-47D", "value": 18.05, "unit": "%"}, {"measurement": "GIPRCNT: % Growth inhibition", "setting": "CNS Cancer, SF-268", "value": 77.45, "unit": "%"}, {"measurement": "GIPRCNT: % Growth inhibition", "setting": "CNS Cancer, SF-295", "value": 89.3, "unit": "%"}, {"measurement": "GIPRCNT: % Growth inhibition", "setting": "CNS Cancer, SF-539", "value": 85.5, "unit": "%"}, {"measurement": "GIPRCNT: % Growth inhibition", "setting": "CNS Cancer, SNB-19", "value": 87.74, "unit": "%"}, {"measurement": "GIPRCNT: % Growth inhibition", "setting": "CNS Cancer, SNB-75", "value": 82.71, "unit": "%"}, {"measurement": "GIPRCNT: % Growth inhibition", "setting": "CNS Cancer, U251", "value": 63.6, "unit": "%"}, {"measurement": "GIPRCNT: % Growth inhibition", "setting": "Colon Cancer, COLO 205", "value": 13.9, "unit": "%"}, {"measurement": "GIPRCNT: % Growth inhibition", "setting": "Colon Cancer, HCC-2998", "value": 85.58, "unit": "%"}, {"measurement": "GIPRCNT: % Growth inhibition", "setting": "Colon Cancer, HCT-15", "value": 40.52, "unit": "%"}, {"measurement": "GIPRCNT: % Growth inhibition", "setting": "Colon Cancer, HCT-116", "value": 11, "unit": "%"}, {"measurement": "GIPRCNT: % Growth inhibition", "setting": "Colon Cancer, HT29", "value": 36.78, "unit": "%"}, {"measurement": "GIPRCNT: % Growth inhibition", "setting": "Colon Cancer, KM12", "value": 81.24, "unit": "%"}, {"measurement": "GIPRCNT: % Growth inhibition", "setting": "Colon Cancer, SW-620", "value": 40.94, "unit": "%"}, {"measurement": "GIPRCNT: % Growth inhibition", "setting": "Leukemia, CCRF-CEM", "value": 26.31, "unit": "%"}, {"measurement": "GIPRCNT: % Growth inhibition", "setting": "Leukemia, HL-60(TB)", "value": 77.07, "unit": "%"}, {"measurement": "GIPRCNT: % Growth inhibition", "setting": "Leukemia, K-562", "value": 19.84, "unit": "%"}, {"measurement": "GIPRCNT: % Growth inhibition", "setting": "Leukemia, MOLT-4", "value": 24.48, "unit": "%"}, {"measurement": "GIPRCNT: % Growth inhibition", "setting": "Leukemia, RPMI-8226", "value": 93.13, "unit": "%"}, {"measurement": "GIPRCNT: % Growth inhibition", "setting": "Leukemia, SR", "value": 29.46, "unit": "%"}, {"measurement": "GIPRCNT: % Growth inhibition", "setting": "Melanoma, LOX IMVI", "value": 65.76, "unit": "%"}, {"measurement": "GIPRCNT: % Growth inhibition", "setting": "Melanoma, M14", "value": 86.06, "unit": "%"}, {"measurement": "GIPRCNT: % Growth inhibition", "setting": "Melanoma, MALME-3M", "value": 59.5595, "unit": "%"}, {"measurement": "GIPRCNT: % Growth inhibition", "setting": "Melanoma, MDA-MB-435", "value": 77.28, "unit": "%"}, {"measurement": "GIPRCNT: % Growth inhibition", "setting": "Melanoma, SK-MEL-2", "value": 104.1313, "unit": "%"}, {"measurement": "GIPRCNT: % Growth inhibition", "setting": "Melanoma, SK-MEL-5", "value": 97.38, "unit": "%"}, {"measurement": "GIPRCNT: % Growth inhibition", "setting": "Melanoma, UACC-62", "value": 88.004, "unit": "%"}, {"measurement": "GIPRCNT: % Growth inhibition", "setting": "Melanoma, UACC-257", "value": 91.12, "unit": "%"}, {"measurement": "GIPRCNT: % Growth inhibition", "setting": "Non-Small Cell Lung Cancer, A549/ATCC", "value": 88.1, "unit": "%"}, {"measurement": "GIPRCNT: % Growth inhibition", "setting": "Non-Small Cell Lung Cancer, EKVX", "value": 82.71, "unit": "%"}, {"measurement": "GIPRCNT: % Growth inhibition", "setting": "Non-Small Cell Lung Cancer, HOP-62", "value": 85.24, "unit": "%"}, {"measurement": "GIPRCNT: % Growth inhibition", "setting": "Non-Small Cell Lung Cancer, HOP-92", "value": 49.09, "unit": "%"}, {"measurement": "GIPRCNT: % Growth inhibition", "setting": "Non-Small Cell Lung Cancer, NCI-H23", "value": 83.43, "unit": "%"}, {"measurement": "GIPRCNT: % Growth inhibition", "setting": "Non-Small Cell Lung Cancer, NCI-H226", "value": 100.3613, "unit": "%"}, {"measurement": "GIPRCNT: % Growth inhibition", "setting": "Non-Small Cell Lung Cancer, NCI-H322M", "value": 69.29, "unit": "%"}, {"measurement": "GIPRCNT: % Growth inhibition", "setting": "Non-Small Cell Lung Cancer, NCI-H460", "value": 80.62, "unit": "%"}, {"measurement": "GIPRCNT: % Growth inhibition", "setting": "Non-Small Cell Lung Cancer, NCI-H522", "value": 54.48, "unit": "%"}, {"measurement": "GIPRCNT: % Growth inhibition", "setting": "Ovarian Cancer, IGROV1", "value": 100.6006, "unit": "%"}, {"measurement": "GIPRCNT: % Growth inhibition", "setting": "Ovarian Cancer, NCI/ADR-RES", "value": 72.41, "unit": "%"}, {"measurement": "GIPRCNT: % Growth inhibition", "setting": "Ovarian Cancer, OVCAR-3", "value": 43.52, "unit": "%"}, {"measurement": "GIPRCNT: % Growth inhibition", "setting": "Ovarian Cancer, OVCAR-4", "value": 6.04, "unit": "%"}, {"measurement": "GIPRCNT: % Growth inhibition", "setting": "Ovarian Cancer, OVCAR-5", "value": 11.16, "unit": "%"}, {"measurement": "GIPRCNT: % Growth inhibition", "setting": "Ovarian Cancer, OVCAR-8", "value": 83.3637, "unit": "%"}, {"measurement": "GIPRCNT: % Growth inhibition", "setting": "Ovarian Cancer, SK-OV-3", "value": 87.6273, "unit": "%"}, {"measurement": "GIPRCNT: % Growth inhibition", "setting": "Prostate Cancer, DU-145", "value": 63.01, "unit": "%"}, {"measurement": "GIPRCNT: % Growth inhibition", "setting": "Prostate Cancer, PC-3", "value": 29.0295, "unit": "%"}, {"measurement": "GIPRCNT: % Growth inhibition", "setting": "Renal Cancer, 786-0", "value": 100.1067, "unit": "%"}, {"measurement": "GIPRCNT: % Growth inhibition", "setting": "Renal Cancer, A498", "value": 89.1, "unit": "%"}, {"measurement": "GIPRCNT: % Growth inhibition", "setting": "Renal Cancer, ACHN", "value": 88.67, "unit": "%"}, {"measurement": "GIPRCNT: % Growth inhibition", "setting": "Renal Cancer, CAKI-1", "value": 28.3672, "unit": "%"}, {"measurement": "GIPRCNT: % Growth inhibition", "setting": "Renal Cancer, RXF 393", "value": 52.45, "unit": "%"}, {"measurement": "GIPRCNT: % Growth inhibition", "setting": "Renal Cancer, SN12C", "value": 54.07, "unit": "%"}, {"measurement": "GIPRCNT: % Growth inhibition", "setting": "Renal Cancer, TK-10", "value": 74.98, "unit": "%"}, {"measurement": "GIPRCNT: % Growth inhibition", "setting": "Renal Cancer, UO-31", "value": 66.57, "unit": "%"}]}]}
